The text below walks through data of BindingDB's records for patent US20230339939 (Bayer Aktiengesellschaft, 2023).

Experiment [1] has as its target Casein kinase I isoform delta (Homo sapiens, UniProt P48730). The experiment in a line: CSNK1D-Inhibitory Activity Assay. As for the experimental part: Recombinant fusion protein of N-terminal Glutathion-S-Transferase (GST) and full-length human CSNK1D, expressed by baculovirus infected insect cells and purified via Glutathion affinity chromatography, was purchased from Life Technologies (product no. PV3665) and used as enzyme. As substrate for the kinase reaction the biotinylated peptide Btn-Ahx-[…] (C-terminus in amide form) was used which can be purchased e.g. from the company Biosyntan (Berlin-Buch, Germany). For the assay 50 nl of a 100 fold concentrated solution of the test compound in DMSO was pipetted into a white 1536-well microtiter plate (Greiner Bio-One, Frickenhausen, Germany), 2 μL of a solution of CSNK1D in aqueous assay buffer [50 mM HEPES pH 7.5, 10% (v/v) glycerol, 10 mM MgCl2, 50 mM NaCl, 1 mM dithiothreitol, 0.01% (w/v) bovine serum albumin, 0.01% (v/v) Triton X-100] were added and the mixture was incubated for 15 min at 22 C. to allow pre-binding of the test compounds to the enzyme before the start of the kinase reaction. […] Subsequently 2.5 μL of the kinase detection reagent (1.2 fold more concentrated than recommended by the producer) were added, the resulting mixture was incubated at 22 C. for 1 h and then the luminescence measured with a suitable measurement instrument (e.g. Viewlux from Perkin-Elmer).

Experiment [2] deals with T1, Casein kinase I isoform alpha (Homo sapiens, UniProt P48729). Description: CSNK1A1 High ATP Assay. The source says: (§1) Recombinant fusion protein of N-terminal Glutathion-S-Transferase (GST) and full-length human CSNK1A1, expressed by baculovirus infected insect cells and purified via Glutathion affinity chromatography, was purchased from Life Technologies (product no. PV4174) and used as enzyme. As substrate for the kinase reaction the biotinylated peptide biotin-Ahx-KRRRAL-pS-VASLPGL (C-terminus in amide form) was used which can be purchased e.g. from the company Biosyntan (Berlin-Buch, Germany). For the assay 50 nl of a 100 fold concentrated solution of the test compound in DMSO was pipetted into a white low volume 384-well microtiter plate (Greiner Bio-One, Frickenhausen, Germany), 2 μL of a solution of CSNK1A1 in aqueous assay buffer [50 mM HEPES pH 7.5, 10% (v/v) glycerol, 10 mM MgCl2, 50 mM NaCl, 1 mM dithiothreitol, 0.01% (w/v) bovine serum albumin, 0.01% (v/v) Triton X-100] were added and the mixture was incubated for 15 min at 22 C. to allow pre-binding of the test compounds to the enzyme before the start of the kinase reaction. […] Subsequently 2.5 μL of the kinase detection reagent (1.2 fold more concentrated than recommended by the producer) were added, the resulting mixture was incubated at 22 C. for 1 h and then the luminescence measured with a suitable measurement instrument (e.g. Viewlux from Perkin-Elmer).
T1 sequence (P48729 whole entry, the tested form may be a part, canonical isoform): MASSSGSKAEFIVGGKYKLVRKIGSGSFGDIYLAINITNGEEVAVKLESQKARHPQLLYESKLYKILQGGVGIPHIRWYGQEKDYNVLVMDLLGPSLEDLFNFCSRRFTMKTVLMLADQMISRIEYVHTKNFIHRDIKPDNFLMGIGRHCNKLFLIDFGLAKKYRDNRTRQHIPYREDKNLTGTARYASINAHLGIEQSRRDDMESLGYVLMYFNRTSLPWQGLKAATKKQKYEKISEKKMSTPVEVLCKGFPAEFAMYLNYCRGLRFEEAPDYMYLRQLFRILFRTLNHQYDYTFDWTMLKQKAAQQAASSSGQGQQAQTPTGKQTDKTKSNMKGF

The target of experiment [3] is T1, Casein kinase I isoform alpha. Description: CSNK1A1 Inhibitory activity Assay 2.
Description: as §1

Experiment [4] has as its target Epidermal growth factor receptor (Homo sapiens, UniProt P00533). Description: WT-EGFR Kinase Assay. The procedure: For the assay 50 nl of a 100 fold concentrated solution of the test compound in DMSO was pipetted into either a black low volume 384 well microtiter plate or a black 1536 well microtiter plate (both Greiner Bio-One, Frickenhausen, Germany), 2 μL of a solution of EGFR in aqueous assay buffer [50 mM Hepes pH 7.0, 10 mM MgCl2, 1 mM dithiothreitol, 0.5 mM EGTA, 0.3 mM activated sodium ortho-vanadate, 0.005% (w/v) bovine serum albumin, 0.005% (v/v) Tween-20] were added and the mixture was incubated for 15 min at 22° C. to allow pre-binding of the test compounds to the enzyme before the start of the kinase reaction. […] The concentration of EGFR was adjusted depending of the activity of the enzyme lot and was chosen appropriate to have the assay in the linear range, typical concentration was 7.6 pg/μL. The reaction was stopped by the addition of 3 μL of a solution of HTRF detection reagents (83.3 nM streptavidine-XL665 [Cisbio Bioassays, Codolet, France] and 1.67 nM PT66-Tb-Cryptate, a terbium-cryptate labelled anti-phospho-tyrosine antibody from Cisbio Bioassays [instead of the PT66-Tb-cryptate PT66-Eu-Chelate from Perkin Elmer can also be used]) in an aqueous EDTA-solution (133.3 mM EDTA, 0.2% (w/v) bovine serum albumin in 50 mM HEPES pH 7.5). […]

A word on the IC50: it is the point on the concentration scale where inhibition reaches its midpoint.

Molecules are shown by their SMILES.

Chain of Casein kinase I isoform delta (P48730 whole entry, the tested form may be a part, canonical isoform): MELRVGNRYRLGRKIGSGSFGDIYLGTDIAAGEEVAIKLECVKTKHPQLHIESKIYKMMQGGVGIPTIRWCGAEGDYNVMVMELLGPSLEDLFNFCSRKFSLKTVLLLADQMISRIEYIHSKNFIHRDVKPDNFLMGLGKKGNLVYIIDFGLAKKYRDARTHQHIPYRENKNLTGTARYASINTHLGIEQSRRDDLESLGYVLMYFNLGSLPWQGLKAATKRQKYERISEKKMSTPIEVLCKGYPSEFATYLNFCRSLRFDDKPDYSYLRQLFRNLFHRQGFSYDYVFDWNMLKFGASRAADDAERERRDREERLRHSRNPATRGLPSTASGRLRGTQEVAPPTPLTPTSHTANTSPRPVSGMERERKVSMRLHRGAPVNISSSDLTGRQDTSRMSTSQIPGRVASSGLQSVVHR
Chain of Epidermal growth factor receptor (P00533 whole entry): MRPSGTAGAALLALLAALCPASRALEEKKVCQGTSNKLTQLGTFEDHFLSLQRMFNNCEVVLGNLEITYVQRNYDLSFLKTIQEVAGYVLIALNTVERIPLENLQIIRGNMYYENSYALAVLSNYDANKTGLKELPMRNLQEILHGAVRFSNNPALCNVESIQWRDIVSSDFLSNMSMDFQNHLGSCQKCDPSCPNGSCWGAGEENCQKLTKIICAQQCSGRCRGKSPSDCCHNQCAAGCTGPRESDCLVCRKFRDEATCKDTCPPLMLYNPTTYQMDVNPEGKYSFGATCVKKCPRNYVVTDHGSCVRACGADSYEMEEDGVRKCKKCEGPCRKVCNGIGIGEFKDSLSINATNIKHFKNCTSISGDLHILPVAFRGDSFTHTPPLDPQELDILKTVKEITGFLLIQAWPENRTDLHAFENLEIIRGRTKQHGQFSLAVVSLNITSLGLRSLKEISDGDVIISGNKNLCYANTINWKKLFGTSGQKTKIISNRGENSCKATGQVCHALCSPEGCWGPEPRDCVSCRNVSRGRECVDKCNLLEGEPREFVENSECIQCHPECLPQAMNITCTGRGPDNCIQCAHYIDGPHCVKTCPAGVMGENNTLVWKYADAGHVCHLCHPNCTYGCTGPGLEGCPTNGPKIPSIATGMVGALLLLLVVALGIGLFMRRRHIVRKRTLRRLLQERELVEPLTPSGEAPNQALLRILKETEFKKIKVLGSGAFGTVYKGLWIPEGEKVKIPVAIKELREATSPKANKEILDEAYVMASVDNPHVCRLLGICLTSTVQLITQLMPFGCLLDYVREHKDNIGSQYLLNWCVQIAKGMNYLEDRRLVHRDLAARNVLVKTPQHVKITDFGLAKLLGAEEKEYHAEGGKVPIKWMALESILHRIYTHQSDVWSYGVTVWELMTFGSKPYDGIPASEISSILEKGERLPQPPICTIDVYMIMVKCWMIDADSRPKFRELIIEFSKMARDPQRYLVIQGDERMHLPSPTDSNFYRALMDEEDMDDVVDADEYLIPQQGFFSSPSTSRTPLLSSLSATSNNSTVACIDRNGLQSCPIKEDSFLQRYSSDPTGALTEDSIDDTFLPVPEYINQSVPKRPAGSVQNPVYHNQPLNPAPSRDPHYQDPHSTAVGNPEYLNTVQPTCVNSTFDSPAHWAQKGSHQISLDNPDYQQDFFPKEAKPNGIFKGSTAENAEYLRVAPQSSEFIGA

Regarding `CC(C)C(C(=O)Nc1cc(-c2[nH]c3ccc(F)nc3c2-c2ccccn2)ccn1)c1ccc(F)cc1` (single isomer, unassigned) [US20230339939, Example 24], the IC50 came out at 10.4 nM in experiment [1], 43 nM in experiment [2] and 4.79 nM in experiment [3].

For `O=C(Cc1ccc(F)cc1)Nc1cc(-c2[nH]c3c(CC4CC4)cc(F)nc3c2-c2ccccn2)ccn1` [US20230339939, Example 37], the IC50 in experiment [1] was 5.76 nM; in experiment [2] it was 9.53 nM; in experiment [4], more than 20000 nM; in experiment [3], 4 nM.
